14 molecules from patent US9340573B2, “Azaindolines” (Hoffmann-La Roche Inc., priority 2012, dated 2016) can be followed below.

One test concerns the target BIR3 domain of XIAP (Homo sapiens (Human), UniProt P98170). As to the kind of experiment: TR-FRET assay for BIR3: inhibition of binding of the XIAP BIR3 domain to Peptide A (SMAC-derived peptide). As to the method:
(§1) TR-FRET Assay for BIR2 and BIR3
(§2) The ability of a test compound to inhibit the binding of BIR2 and/or BIR3 domains of the XIAP protein to Peptide A (a SMAC-derived peptide described below) evidences that the test compound acts as a SMAC-mimetic resulting in reactivation of a cell's apoptotic pathway.
(§3) The peptides were labeled with the fluorescent tags FITC or TAMRA and Kd values were determined by fluorescence polarization assay. […] The peptide sequence was derivatized with biotin to provide […]-(ε-biotin)-OH 1:2 TFA as the substrate for the TR-FRET assay.
The sequence of the BIR3 domain used for the TR-FRET assay is […]
(§4) Ten nanomolar of 6× Histidine-tagged BIR2 domain, corresponding to amino acids 124-240 of XIAP, or BIR3 domain, corresponding to amino acids 241-356 of XIAP, was mixed with 20 nM of the peptide […]-(ε-biotin)-OH 1:2 TFA, in the presence of 50 mM Tris-Cl, pH 7.5, 100 mM NaCl, 1 mM dithiothreitol (DTT) and 0.1 mg/mL bovine serum albumin (BSA). Following a […] incubation at 37° C., Europium-Streptavidin and Allophycocyanin conjugated anti-Histidine antibody were added to a final concentration of 1.5 nM and 15 nM, respectively. Time-resolved fluorescence resonance energy transfer (TR-FRET) signals were measured 1 hour later at room temperature. Test compound potency was assessed at 10 serially diluted concentrations. Percentage of inhibition at each concentration was determined to generate an IC50 value for each test compound.

Another test deals with BIR2 domain of XIAP (Homo sapiens (Human), UniProt P98170, C202A/C213G). In words: TR-FRET assay for BIR2: inhibition of binding of the XIAP BIR2 domain to Peptide A (SMAC-derived peptide). How it is done: as §1, §2, §3
The XIAP protein sequence was obtained from the SWISS-PROT protein sequence database and the BIR2 and BIR3 domains were derived from that. The sequence of the BIR2 domain used for the TR-FRET assay is […].
as §4
(In general: In TR-FRET formats the signal depends on donor and acceptor labels being close together.)

The mark [1] stands for this setting: 6x His-tagged BIR3 domain (aa 241-356 of XIAP), 10 nM, 20 nM Peptide A, TR-FRET, read-out: Ic50 BIR3.
Where [2] appears, read: 6x His-tagged BIR2 domain (aa 124-240 of XIAP), 10 nM, 20 nM Peptide A, TR-FRET, read-out: Ic50 BIR2.

Molecules are shown by their SMILES. Where a name gives a salt, the structure may show the parent alone. Read-outs that look alike come from different tables or passages of the source.

Sequence of BIR3 domain of XIAP (P98170 other isoform, or with tags, fused parts or gaps): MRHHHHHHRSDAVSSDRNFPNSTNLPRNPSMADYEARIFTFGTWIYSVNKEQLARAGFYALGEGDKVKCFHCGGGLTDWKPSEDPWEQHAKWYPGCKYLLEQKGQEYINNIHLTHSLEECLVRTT
Sequence of BIR2 domain of XIAP (P98170 other isoform, or with tags, fused parts or gaps, stated change not applied): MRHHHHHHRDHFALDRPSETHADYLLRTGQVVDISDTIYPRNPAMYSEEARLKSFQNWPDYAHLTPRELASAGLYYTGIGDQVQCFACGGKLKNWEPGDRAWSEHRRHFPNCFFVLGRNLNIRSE

As to `CN[C@@H](C)C(=O)N[C@H](C(=O)N1c2ncccc2C[C@H]1CNC(=O)c1ccccc1)C(C)C` [Example 1, N—{(S)-1-[(S)-3-Methyl-2-((S)-2-methylamino-propionylamino)-butyryl]-2,3-dihydro-1H-pyrrolo[2,3-b]pyridin-2-ylmethyl}-benzamide, hydrochloride], the half-inhibitory concentration (IC50) (as a rule, the concentration needed to halve the response being measured) on BIR3 domain of XIAP (setting [1]) was 53 µM; on BIR2 domain of XIAP (setting [2]), 0.888 µM.

Turning to `CN[C@@H](C)C(=O)N[C@H](C(=O)N1c2ncccc2CC1CNC(C)=O)C(C)C` (stereo partly drawn) [Example 2, (S)-N-{(S)-1-[2-(Acetylamino-methyl)-2,3-dihydro-pyrrolo[2,3-b]pyridine-1-carbonyl]-2-methyl-propyl}-2-methylamino-propionamide hydrochloride], the IC50 is over 54.8 µM on BIR3 domain of XIAP (read-out: Ic50 BIR3) and 4.67 µM on BIR2 domain of XIAP (read-out: Ic50 BIR2).

For `CNC(=O)NCC1Cc2cccnc2N1C(=O)[C@@H](NC(=O)[C@H](C)NC)C(C)C` (stereo partly drawn) [Example 3, (S)-2-Methylamino-N-((S)-2-methyl-1-{2-[(3-methyl-ureido)-methyl]-2,3-dihydro-pyrrolo[2,3-b]pyridine-1-carbonyl}-propyl)-propionamide hydrochloride], the IC50 was over 54.8 µM at BIR3 domain of XIAP (setting [1]) and 4.88 µM at BIR2 domain of XIAP (setting [2]).

For the molecule `CN[C@@H](C)C(=O)N[C@H](C(=O)N1c2ncccc2C[C@H]1CNC(=O)Cc1ccccc1)C(C)C` [Example 4, (S)-2-Methylamino-N-{(S)-2-methyl-1-[(S)-2-(phenylacetylamino-methyl)-2,3-dihydro-pyrrolo[2,3-b]pyridine-1-carbonyl]-propyl}-propionamide hydrochloride], the IC50 was over 54.8 µM at BIR3 domain of XIAP (setting [1]) and 1.57 µM on BIR2 domain of XIAP (setting [2]).

Consider `CN[C@@H](C)C(=O)N[C@H](C(=O)N1c2ncccc2C[C@H]1CNC(=O)OC)C(C)C` [Example 5, {(S)-1-[(S)-3-Methyl-2-((S)-2-methylamino-propionylamino)-butyryl]-2,3-dihydro-1H-pyrrolo[2,3-b]pyridin-2-ylmethyl}-carbamic acid methyl ester hydrochloride], for which the IC50 was over 54.8 µM at BIR3 domain of XIAP (setting [1]) and 1.67 µM on BIR2 domain of XIAP (setting [2]).

In the case of `CN[C@@H](C)C(=O)N[C@H](C(=O)N1c2ncccc2C[C@H]1CNC(=O)N(C)C)C(C)C` [Example 6, (S)-N-{(S)-1-[(S)-2-(3,3-Dimethyl-ureidomethyl)-2,3-dihydro-pyrrolo[2,3-b]pyridine-1-carbonyl]-2-methyl-propyl}-2-methylamino-propionamide hydrochloride], the IC50 was over 54.8 µM on BIR3 domain of XIAP (setting [1]) and 6.17 µM at BIR2 domain of XIAP (setting [2]).

Take `CN[C@@H](C)C(=O)N[C@H](C(=O)N1c2ncccc2C[C@H]1CNC(=O)Nc1ccccc1)C(C)C` [Example 7, (S)-2-Methylamino-N-((S)-2-methyl-1-{(S)-2-[(3-phenyl-ureido)-methyl]-2,3-dihydro-pyrrolo[2,3-b]pyridine-1-carbonyl}-propyl)-propionamide hydrochloride]: the IC50 on BIR3 domain of XIAP (setting [1]) is over 54.8 µM; on BIR2 domain of XIAP (setting [2]), 1.54 µM.

Turning to `CN[C@@H](C)C(=O)N[C@H](C(=O)N1c2ncccc2C[C@H]1CNC(=O)C(C)c1ccccc1)C(C)C` (stereo partly drawn) [Example 8, (S)-2-Methylamino-N-((S)-2-methyl-1-{(S)-2-[(2-phenyl-propionylamino)-methyl]-2,3-dihydro-pyrrolo[2,3-b]pyridine-1-carbonyl}-propyl)-propionamide hydrochloride], the IC50 at BIR3 domain of XIAP (setting [1]) is over 54.8 µM; at BIR2 domain of XIAP (setting [2]) it was 2.56 µM.

Take `CN[C@@H](C)C(=O)N[C@H](C(=O)N1c2ncccc2C[C@H]1CNS(C)(=O)=O)C(C)C` [Example 9, (S)-N-{(S)-1-[(S)-2-(Methanesulfonylamino-methyl)-2,3-dihydro-pyrrolo[2,3-b]pyridine-1-carbonyl]-2-methyl-propyl}-2-methylamino-propionamide hydrochloride]: the IC50 on BIR3 domain of XIAP (setting [1]) is over 54.8 µM; at BIR2 domain of XIAP (setting [2]), 1.24 µM.

Take `CN[C@@H](C)C(=O)N[C@H](C(=O)N1c2ncccc2C[C@H]1CNS(=O)(=O)c1ccccc1)C(C)C` [Example 10, (S)-N-{(S)-1-[(S)-2-(Benzenesulfonylamino-methyl)-2,3-dihydro-pyrrolo[2,3-b]pyridine-1-carbonyl]-2-methyl-propyl}-2-methylamino-propionamide hydrochloride]: the IC50 at BIR3 domain of XIAP (setting [1]) was over 54.8 µM; at BIR2 domain of XIAP (setting [2]) it was 0.82 µM.

Take `CN[C@@H](C)C(=O)N[C@H](C(=O)N1c2ncccc2C[C@H]1CNC(=O)OCc1ccccc1)C(C)C` [Example 11, {(S)-1-[(S)-3-Methyl-2-((S)-2-methylamino-propionylamino)-butyryl]-2,3-dihydro-1H-pyrrolo[2,3-b]pyridin-2-ylmethyl}-carbamic acid benzyl ester]: the figures for the IC50 on BIR3 domain of XIAP (setting [1]) and on BIR2 domain of XIAP (setting [2]) were over 54.8 µM and 1.05 µM, respectively.

`CN[C@@H](C)C(=O)N[C@H](C(=O)N1c2ncccc2C[C@H]1CNC(=O)Oc1ccccc1)C(C)C` [Example 12, {(S)-1-[(S)-3-Methyl-2-((S)-2-methylamino-propionylamino)-butyryl]-2,3-dihydro-1H-pyrrolo[2,3-b]pyridin-2-ylmethyl}-carbamic acid phenyl ester hydrochloride]: the IC50 at BIR3 domain of XIAP was over 54.8 µM; on BIR2 domain of XIAP, 1.62 µM.

Turning to `CN[C@@H](C)C(=O)N[C@H](C(=O)N1c2ncccc2C[C@H]1CNc1ccccc1)C(C)C` [Example 13, (S)-2-Methylamino-N—[(S)-2-methyl-1-((S)-2-phenylaminomethyl-2,3-dihydro-pyrrolo[2,3-b]pyridine-1-carbonyl)-propyl]-propionamide, hydrochloride], the IC50 on BIR3 domain of XIAP (setting [1]) was determined as 5.34 µM; at BIR2 domain of XIAP (setting [2]) it was 0.307 µM.

With `CN[C@@H](C)C(=O)N[C@H](C(=O)N1c2ncccc2C[C@H]1CNc1ccc2ccccc2c1)C(C)C` [Example 14, (S)-2-methylamino-N—{(S)-2-methyl-1-[(S)-2-(naphthalen-2-ylaminomethyl)-2,3-dihydro-pyrrolo[2,3-b]pyridine-1-carbonyl]-propyl}-propionamide hydrochloride], the figures for the IC50 at BIR3 domain of XIAP (setting [1]) and on BIR2 domain of XIAP (setting [2]) were 3.95 µM and 0.506 µM, respectively.
